Data taken from the supplement of paper PMC12350171.

Legend:
Parabacteroides merdae = assay: IC25 growth inhibition; higher = less potent
Outline: (§1)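 Under anaerobic conditions, OD578 was read hourly in a plate reader for at least three biological replicates of monocultures grown overnight in mGAM. Each culture started at an OD578 of 0.01 in pre-reduced plates holding twofold drug dilutions and 1% DMSO (or water). IC25 was reported as a tested interval: the lowest concentration where the monotonic median area under the growth curve dropped below the cutoff. That cutoff was 0.75.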

Clostridium perfringens = assay: IC25 growth inhibition; higher = less potent
Outline: as §1

[1] = system: Salmonella enterica typhimurium; assay: IC25 growth inhibition; higher = less potent
Outline: as §1

Bacteroides uniformis = assay: IC25 growth inhibition; higher = less potent
Outline: as §1

Bacteroides vulgatus = assay: IC25 growth inhibition; higher = less potent
Outline: as §1

Dorea formicigenerans = assay: IC25 growth inhibition; higher = less potent
Outline: as §1

Vibrio cholerae = assay: IC25 growth inhibition; higher = less potent
Outline: as §1

Eubacterium rectale = assay: IC25 growth inhibition; higher = less potent
Outline: as §1

Collinsella aerofaciens = assay: IC25 growth inhibition; higher = less potent
Outline: as §1

Ruminococcus gnavus = assay: IC25 growth inhibition; higher = less potent
Outline: as §1

[2] = system: Streptococcus parasanguinis; assay: IC25 growth inhibition; higher = less potent
Outline: as §1

[3] = system: Yersinia pseudotuberculosis; assay: IC25 growth inhibition; higher = less potent
Outline: as §1

[4] = system: Yersinia enterocolitica WA-314; assay: IC25 growth inhibition; higher = less potent
Outline: as §1

[5] = system: Fusobacterium nucleatum subsp. Nucleatum; assay: IC25 growth inhibition; higher = less potent
Outline: as §1

Bacteroides fragilis NT = assay: IC25 growth inhibition; higher = less potent
Outline: as §1

[6] = system: Bacteroides thetaiotaomicron; assay: IC25 growth inhibition; higher = less potent
Outline: as §1

Clostridium bolteae = assay: IC25 growth inhibition; higher = less potent
Outline: as §1

Shigella flexneri = assay: IC25 growth inhibition; higher = less potent
Outline: as §1

Roseburia intestinalis = assay: IC25 growth inhibition; higher = less potent
Outline: as §1

Streptococcus salivarius = assay: IC25 growth inhibition; higher = less potent
Outline: as §1

Coprococcus comes = assay: IC25 growth inhibition; higher = less potent
Outline: as §1

[7] = system: Clostridium saccharolyticum; assay: IC25 growth inhibition; higher = less potent
Outline: as §1

Clostridium ramosum = assay: IC25 growth inhibition; higher = less potent
Outline: as §1

Escherichia coli ED1a = assay: IC25 growth inhibition; higher = less potent
Outline: as §1

[8] = system: Com21 synthetic gut community; assay: community biomass OD578 after 24 h drug treatment relative to untreated (fraction of untreated control); higher = more community growth; conditions: community: Com21 (Com20 + E. coli ED1a)
Procedure: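 Com21 (Com20 plus E. coli ED1a) was treated with drug for 24 h under anaerobic conditions in mGAM. Community OD578 was then measured and normalised to untreated Com21; mean of 3 biological replicates.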

[9] = drug pretreatment concentration 10 µM
[10] = drug pretreatment concentration 20 µM
[11] = drug pretreatment concentration 40 µM
[12] = drug pretreatment concentration 80 µM
[13] = drug pretreatment concentration 160 µM
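Throughout, for IC25 growth inhibition: lowest concentration where monotonic median growth AUC falls below 0.75 of drug-free control.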

COc1ccc2[nH]c([S+]([O-])Cc3ncc(C)c(OC)c3C)nc2c1 (stereo unspecified) [Omeprazole]
IC25 growth inhibition (Parabacteroides merdae): > 160 µM
IC25 growth inhibition (Clostridium perfringens): > 160 µM
IC25 growth inhibition [1]: > 160 µM
IC25 growth inhibition (Bacteroides uniformis): > 160 µM
IC25 growth inhibition (Bacteroides vulgatus): > 160 µM
IC25 growth inhibition (Dorea formicigenerans): > 160 µM
IC25 growth inhibition (Vibrio cholerae): > 160 µM
IC25 growth inhibition (Eubacterium rectale): > 160 µM
IC25 growth inhibition (Collinsella aerofaciens): > 160 µM
IC25 growth inhibition (Ruminococcus gnavus): > 160 µM
IC25 growth inhibition [2]: > 160 µM
IC25 growth inhibition [3]: > 160 µM
IC25 growth inhibition [4]: > 160 µM
IC25 growth inhibition [5]: > 160 µM
IC25 growth inhibition (Bacteroides fragilis NT): > 160 µM
IC25 growth inhibition [6]: > 160 µM
IC25 growth inhibition (Clostridium bolteae): > 160 µM
IC25 growth inhibition (Shigella flexneri): > 160 µM
IC25 growth inhibition (Roseburia intestinalis): > 160 µM
IC25 growth inhibition (Streptococcus salivarius): > 160 µM
IC25 growth inhibition (Coprococcus comes): > 160 µM
IC25 growth inhibition [7]: > 160 µM
IC25 growth inhibition (Clostridium ramosum): > 160 µM
IC25 growth inhibition (Escherichia coli ED1a): > 160 µM
community biomass OD578 [8, 9]: 0.981
community biomass OD578 [8, 10]: 0.997
community biomass OD578 [8, 11]: 1.01
community biomass OD578 [8, 12]: 0.979
community biomass OD578 [8, 13]: 0.95

CC(CN1c2ccccc2Sc2ccccc21)N(C)C (stereo unspecified) [Promethazine]
IC25 growth inhibition (Parabacteroides merdae): ≤ 10 µM
IC25 growth inhibition (Clostridium perfringens): ≤ 160 µM
IC25 growth inhibition [1]: > 160 µM
IC25 growth inhibition (Bacteroides uniformis): > 160 µM
IC25 growth inhibition (Bacteroides vulgatus): ≤ 20 µM
IC25 growth inhibition (Dorea formicigenerans): ≤ 160 µM
IC25 growth inhibition (Vibrio cholerae): ≤ 160 µM
IC25 growth inhibition (Eubacterium rectale): ≤ 160 µM
IC25 growth inhibition (Collinsella aerofaciens): > 160 µM
IC25 growth inhibition (Ruminococcus gnavus): ≤ 160 µM
IC25 growth inhibition [2]: > 160 µM
IC25 growth inhibition [3]: ≤ 160 µM
IC25 growth inhibition [4]: > 160 µM
IC25 growth inhibition [5]: > 160 µM
IC25 growth inhibition (Bacteroides fragilis NT): ≤ 160 µM
IC25 growth inhibition [6]: ≤ 80 µM
IC25 growth inhibition (Clostridium bolteae): > 160 µM
IC25 growth inhibition (Shigella flexneri): > 160 µM
IC25 growth inhibition (Roseburia intestinalis): ≤ 160 µM
IC25 growth inhibition (Streptococcus salivarius): ≤ 160 µM
IC25 growth inhibition (Coprococcus comes): ≤ 160 µM
IC25 growth inhibition [7]: > 160 µM
IC25 growth inhibition (Clostridium ramosum): > 160 µM
IC25 growth inhibition (Escherichia coli ED1a): > 160 µM
community biomass OD578 [8, 9]: 0.987
community biomass OD578 [8, 10]: 1.01
community biomass OD578 [8, 11]: 0.99
community biomass OD578 [8, 12]: 0.991
community biomass OD578 [8, 13]: 0.949

CNCCCC1c2ccccc2C=Cc2ccccc21 [Protriptyline]
IC25 growth inhibition (Parabacteroides merdae): > 160 µM
IC25 growth inhibition (Clostridium perfringens): > 160 µM
IC25 growth inhibition [1]: > 160 µM
IC25 growth inhibition (Bacteroides uniformis): ≤ 160 µM
IC25 growth inhibition (Bacteroides vulgatus): ≤ 40 µM
IC25 growth inhibition (Dorea formicigenerans): > 160 µM
IC25 growth inhibition (Vibrio cholerae): > 160 µM
IC25 growth inhibition (Eubacterium rectale): > 160 µM
IC25 growth inhibition (Collinsella aerofaciens): > 160 µM
IC25 growth inhibition (Ruminococcus gnavus): > 160 µM
IC25 growth inhibition [2]: > 160 µM
IC25 growth inhibition [3]: > 160 µM
IC25 growth inhibition [4]: ≤ 160 µM
IC25 growth inhibition [5]: ≤ 160 µM
IC25 growth inhibition (Bacteroides fragilis NT): > 160 µM
IC25 growth inhibition [6]: ≤ 80 µM
IC25 growth inhibition (Clostridium bolteae): > 160 µM
IC25 growth inhibition (Shigella flexneri): > 160 µM
IC25 growth inhibition (Roseburia intestinalis): > 160 µM
IC25 growth inhibition (Streptococcus salivarius): > 160 µM
IC25 growth inhibition (Coprococcus comes): > 160 µM
IC25 growth inhibition [7]: > 160 µM
IC25 growth inhibition (Clostridium ramosum): > 160 µM
IC25 growth inhibition (Escherichia coli ED1a): > 160 µM
community biomass OD578 [8, 9]: 0.995
community biomass OD578 [8, 10]: 1.02
community biomass OD578 [8, 11]: 1.01
community biomass OD578 [8, 12]: 0.991
community biomass OD578 [8, 13]: 0.956

O=C1NCCN1CCN1CCC(c2cn(-c3ccc(F)cc3)c3ccc(Cl)cc23)CC1 [Sertindole]
IC25 growth inhibition (Parabacteroides merdae): ≤ 40 µM
IC25 growth inhibition (Clostridium perfringens): ≤ 80 µM
IC25 growth inhibition [1]: > 160 µM
IC25 growth inhibition (Bacteroides uniformis): ≤ 20 µM
IC25 growth inhibition (Bacteroides vulgatus): ≤ 20 µM
IC25 growth inhibition (Dorea formicigenerans): ≤ 20 µM
IC25 growth inhibition (Vibrio cholerae): ≤ 80 µM
IC25 growth inhibition (Eubacterium rectale): ≤ 20 µM
IC25 growth inhibition (Collinsella aerofaciens): ≤ 40 µM
IC25 growth inhibition (Ruminococcus gnavus): ≤ 40 µM
IC25 growth inhibition [2]: ≤ 80 µM
IC25 growth inhibition [3]: ≤ 160 µM
IC25 growth inhibition [4]: > 80 µM
IC25 growth inhibition [5]: ≤ 40 µM
IC25 growth inhibition (Bacteroides fragilis NT): ≤ 40 µM
IC25 growth inhibition [6]: ≤ 40 µM
IC25 growth inhibition (Clostridium bolteae): ≤ 80 µM
IC25 growth inhibition (Shigella flexneri): > 80 µM
IC25 growth inhibition (Roseburia intestinalis): ≤ 20 µM
IC25 growth inhibition (Streptococcus salivarius): ≤ 20 µM
IC25 growth inhibition (Coprococcus comes): ≤ 80 µM
IC25 growth inhibition [7]: ≤ 40 µM
IC25 growth inhibition (Clostridium ramosum): ≤ 80 µM
IC25 growth inhibition (Escherichia coli ED1a): > 160 µM
community biomass OD578 [8, 9]: 1.01
community biomass OD578 [8, 10]: 0.991
community biomass OD578 [8, 11]: 0.99
community biomass OD578 [8, 12]: 0.786
community biomass OD578 [8, 13]: 0.451
